From patent US20230123334A1, “AMINO LIPID COMPOUND, PREPARATION METHOD THEREFOR, AND APPLICATION THEREOF” (SHENZHEN SHENXIN BIOTECHNOLOGY CO., LTD., priority 2020, published 2023)

Columns and labels:
Assay type in all cases: cell-based
[1] = system: Hela cells; experiment: Transfection of Hela cell line, DNA vectors; details: 75 ng plasmid DNA, GFP cells / total cells
In short: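 Amino lipid/DOPE liposomes in sodium acetate pH 5.6 were complexed with 75 ng psin-EGFP-IRES-Puro plasmid for 30 min at room temperature, then mixed with 3-5×10^4 Hela cells in DMEM/10% FBS at 37° C. Hoechst stain after 20-24 h, imaging after a further 20-24 h. Efficiency = GFP-positive cells / total nuclei.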

[2] = system: MCF7 cells; experiment: Transfection of MCF7 cell line, DNA vectors; set-up: concentration or dose not given beside the values; details: plasmid DNA, GFP cells / total cells
In short: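 MCF7 cells in DMEM with fetal bovine serum were transfected in 96-well format. Read-out was the percentage of GFP-fluorescent cells among total cells counted by Hoechst nuclear stain. Lipofectamine2000 served as positive control.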

[3] = system: embryonic stem cells (hESC2); experiment: Screening as DNA vectors in embryonic stem cells, flow cytometry; details: 75 ng plasmid DNA, 48 hours after transfection, flow cytometer
In short: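 hESC2 cells in mTeSR1 on matrigel transfected with 75 ng pSin-EGFP-IRES-Puro complexed with amino lipid/DOPE liposomes formed in sodium acetate pH 5.6; 37 °C, 5% CO2. After 48 h, GFP-positive cells counted by flow cytometry (≥2000 cells), efficiency also expressed relative to Lipofectamine Stem.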

[4] = system: Hela cells; experiment: Transfection of Hela cell line, mRNA vectors; details: 50 ng EGFP mRNA per well
In short: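 HeLa cells in DMEM with 10% FBS transfected with 50 ng EGFP mRNA per well. Readout is percentage of GFP-positive cells among total cells counted by Hoechst nuclear stain; Lipofectamine2000 served as positive control.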

[5] = system: cardiomyocytes; experiment: Screening as DNA vectors in cardiomyocytes; set-up: concentration or dose not given beside the values; details: method as Example 4
In short: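 hESC-derived cardiomyocytes in DMEM with 10% FBS were transfected with a GFP DNA vector; Lipofectamine Stem served as positive control. Read-out: percentage of GFP-positive cells relative to total cells counted by Hoechst nuclear stain.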

[6] = system: embryonic stem cells (hESC2); experiment: Screening as mRNA vectors in embryonic stem cells; details: 50 ng EGFP mRNA per well
In short: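 EGFP mRNA (50 ng per well) transfected into hESC2 cells grown in mTeSR1; Lipofectamine Stem served as positive control. Read-out: GFP-fluorescent cells as percentage of total cells.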

[7] = system: cardiomyocytes; experiment: Screening as mRNA vectors in cardiomyocytes; details: 50 ng EGFP mRNA per well
In short: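 Cardiomyocytes differentiated from hESC, in DMEM with 10% FBS, were transfected with 50 ng EGFP mRNA per well. The read-out was GFP-positive cells as a percentage of Hoechst-stained nuclei, with Lipofectamine Stem as positive control.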

[8] = system: MCF7 cells; experiment: Transfection of MCF7 cell line, mRNA vectors; details: 50 ng EGFP mRNA per well
In short: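 MCF7 cells in DMEM with fetal bovine serum were transfected with 50 ng EGFP mRNA per well. Read-out was the percentage of GFP-positive cells among total Hoechst-stained nuclei, with Lipofectamine2000 as positive control.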

SMILES	Absolute DNA transfection efficiency in Hela cells [1]	Absolute DNA transfection efficiency in MCF7 cells [2]	Absolute DNA transfection efficiency in embryonic stem cells [3]	Absolute mRNA transfection efficiency in Hela cells [4]	Absolute DNA transfection efficiency in cardiomyocytes [5]	Absolute mRNA transfection efficiency in embryonic stem cells [6]	Absolute mRNA transfection efficiency in cardiomyocytes [7]	Absolute mRNA transfection efficiency in MCF7 cells [8]
CCCCCCCCCCCNc1nc(NCC2CCN(C)CC2)nc(SCCCCCCCCC)n1 [Compound S9N11D10]	21.2%	36.6%	2.2%	21.3%	2.7%	2.6%	45.3%	20.2%
CCCCCCCCCCCCNc1nc(NCCN2CCCC2)nc(SCCCCCCCCC)n1 [Compound S9N12D3]	23.7%	27.5%	2.3%	23.7%	1.1%	4.6%	29.2%	15.9%
CCCCCCCCCCCNc1nc(NCCN2CCCC2)nc(SCCCCCCCCC)n1 [Compound S9N11D3]	21.8%	26.6%	0.4%	21.8%	0.4%	1.7%	16.7%	7.9%
CCCCCCCCCCCSc1nc(NCCCCCCCCC)nc(NCCN2CCN(C)CC2)n1 [Compound S11N9D5]	10.6%	23.1%	0.5%	10.6%	19.7%	24.9%	30.7%	17.8%
CCCCCCCCCCCCNc1nc(NCC2CCN(C)CC2)nc(SCCCCCCCCC)n1 [Compound S9N12D10]	12.9%	31.7%	5.3%	12.9%	3.6%	14.0%	40.6%	11.2%
CCCCCCCCCCCCSc1nc(NCCCN2CCOCC2)nc(SCCCCCCCC)n1 [Compound S8S12D8]	17.2%	37.7%	5.9%	17.2%	1.9%	0.7%	0.7%	14.0%
CCCCCCCCCCCSc1nc(NCCCCCCCCC)nc(NCCN2CCCC2)n1 [Compound S11N9D3]	11.5%	13.6%	3.7%	11.5%	0.3%	22.0%	8.3%	26.6%
CCCCCCCCCCCSc1nc(NCCCCCCCCC)nc(NCCCN2CCOCC2)n1 [Compound S11N9D8]	4.3%	0.9%	0.8%	4.3%	1.7%	3.2%	2.6%	13.1%
